Source: PubChem BioAssay AID328 (DTP/NCI, 2004)
Where “and” joins values, the source holds several entries; their conditions need not be identical. Equal values may be shown once. Toxic doses and inconclusive results are not listed.

Tested on: BDF1 mice, P388 leukemia ip, median survival T/C
Assay: NCI In Vivo Anticancer Drug Screen. Data for tumor model P388 Leukemia (intraperitoneal) in B6D2F1 (BDF1) mice
Conditions: endpoint: median survival time, vehicle: saline, higher = longer survival
In short: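 Antitumour effect was judged in vivo: survival in drug-treated mice, normalised to that of vehicle-dosed controls, gives the reported T/C.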

For Nc1ncnc2c1ccn2C1OC(CO)C(O)C1O (stereo not drawn), the T/C (dose: 0.19 mg/kg/injection, schedule: Q03DX005 (ip)) was 100 % of control, the T/C (dose: 0.25 mg/kg/injection, schedule: Q02DX005 (ip)) was 108 % of control and the T/C (dose: 0.25 mg/kg/injection, schedule: Q#A X002 (ip)) was 108 % of control. For the same compound, the T/C (dose: 0.31 mg/kg/injection, schedule: Q01DX010 (ip)) was 122 % of control, the T/C (dose: 0.38 mg/kg/injection, schedule: Q03DX005 (ip)) was 104 % of control and the T/C (dose: 0.5 mg/kg/injection, schedule: Q01DX006 (iv)) was 95 % of control. The T/C (dose: 0.5 mg/kg/injection, schedule: Q01DX010 (oral)) was 109 % of control, the T/C (dose: 0.5 mg/kg/injection, schedule: Q02DX004 (im)) was 104 % of control and the T/C (dose: 0.5 mg/kg/injection, schedule: Q02DX005 (ip)) was 112 % of control. For the same compound, the T/C (dose: 0.5 mg/kg/injection, schedule: Q04DX003 (ip)) was 112 % of control, the T/C (dose: 0.5 mg/kg/injection, schedule: Q07DX002 (ip)) was 112 % of control and the T/C (dose: 0.5 mg/kg/injection, schedule: Q#A X002 (ip)) was 112 % of control. For the same compound, the T/C (dose: 0.75 mg/kg/injection, schedule: Q03DX005 (ip)) was 118 % of control, the T/C (dose: 1.0 mg/kg/injection, schedule: Q01DX001 (ip)) was 108 % of control and the T/C (dose: 1.0 mg/kg/injection, schedule: Q01DX006 (iv)) was 95 % of control. For the same compound, the T/C (dose: 1.0 mg/kg/injection, schedule: Q01DX010 (ip)) was 150 % of control, the T/C (dose: 1.0 mg/kg/injection, schedule: Q01DX010 (oral)) was 100 % of control and the T/C (dose: 1.0 mg/kg/injection, schedule: Q01DX010 (sc)) was 91 % of control and 104 % of control. The T/C (dose: 1.0 mg/kg/injection, schedule: Q02DX004 (im)) was 91 % of control, the T/C (dose: 1.0 mg/kg/injection, schedule: Q04DX003 (ip)) was 116 % of control and the T/C (dose: 1.0 mg/kg/injection, schedule: Q07DX002 (ip)) was 116 % of control. For the same compound, the T/C (dose: 1.5 mg/kg/injection, schedule: Q03DX005 (ip)) was 154 % of control, the T/C (dose: 1.5 mg/kg/injection, schedule: Q03DX010 (ip)) was 172 % of control and the T/C (dose: 1.75 mg/kg/injection, schedule: Q07DX002 (ip)) was 150 % of control. For the same compound, the T/C (dose: 2.0 mg/kg/injection, schedule: Q01DX001 (ip)) was 116 % of control, the T/C (dose: 2.0 mg/kg/injection, schedule: Q01DX006 (iv)) was 91 % of control and the T/C (dose: 2.0 mg/kg/injection, schedule: Q01DX010 (im)) was 104 % of control. For the same compound, the T/C (dose: 2.0 mg/kg/injection, schedule: Q01DX010 (ip)) was 108 % of control, the T/C (dose: 2.0 mg/kg/injection, schedule: Q01DX010 (oral)) was 100 % of control and the T/C (dose: 2.0 mg/kg/injection, schedule: Q01DX010 (sc)) was 100 % of control and 113 % of control. The T/C (dose: 2.0 mg/kg/injection, schedule: Q02DX004 (im)) was 100 % of control, the T/C (dose: 2.0 mg/kg/injection, schedule: Q04DX003 (ip)) was 120 % of control and the T/C (dose: 2.0 mg/kg/injection, schedule: Q07DX002 (ip)) was 116 % of control. The T/C (dose: 2.0 mg/kg/injection, schedule: Q#A X002 (ip)) was 95 % of control, the T/C (dose: 3.0 mg/kg/injection, schedule: Q03DX010 (ip)) was 159 % of control and the T/C (dose: 4.0 mg/kg/injection, schedule: Q01DX010 (im)) was 104 % of control. The T/C (dose: 4.0 mg/kg/injection, schedule: Q01DX010 (sc)) was 112 % of control and 113 % of control, the T/C (dose: 4.0 mg/kg/injection, schedule: Q02DX004 (im)) was 100 % of control and the T/C (dose: 4.0 mg/kg/injection, schedule: Q04DX003 (ip)) was 100 % of control. The T/C (dose: 4.0 mg/kg/injection, schedule: Q07DX002 (ip)) was 116 % of control, the T/C (dose: 7.0 mg/kg/injection, schedule: Q01DX001 (ip)) was 150 % of control and the T/C (dose: 8.0 mg/kg/injection, schedule: Q01DX001 (oral)) was 92 % of control. For the same compound, the T/C (dose: 8.0 mg/kg/injection, schedule: Q01DX010 (im)) was 150 % of control, the T/C (dose: 8.0 mg/kg/injection, schedule: Q01DX010 (oral)) was 91 % of control and the T/C (dose: 8.0 mg/kg/injection, schedule: Q01DX010 (sc)) was 118 % of control. The T/C (dose: 16.0 mg/kg/injection, schedule: Q01DX001 (oral)) was 92 % of control, the T/C (dose: 28.0 mg/kg/injection, schedule: Q01DX001 (ip)) was 118 % of control and the T/C (dose: 31.5 mg/kg/injection, schedule: Q#A X020 (ip)) was 104 % of control. For the same compound, the T/C (dose: 62.5 mg/kg/injection, schedule: Q#A X020 (ip)) was 109 % of control, the T/C (dose: 125.0 mg/kg/injection, schedule: Q#A X020 (ip)) was 118 % of control and the T/C (dose: 63.0 micrograms/kg/injection, schedule: Q01DX010 (ip)) was 109 % of control. The T/C (dose: 125.0 micrograms/kg/injection, schedule: Q01DX010 (ip)) was 104 % of control and the T/C (dose: 250.0 micrograms/kg/injection, schedule: Q01DX010 (ip)) was 104 % of control.
